Measurements from patent US20050026833A1, “PSP-94: use for treatment of hypercalcemia and bone metastasis” (priority 2001, published 2005).

Legend:
[1] = tested on: PTHrP; assay: Plasma PTHrP radioimmunoassay in tumor bearing animals; type: in vivo, male Copenhagen rats
Protocol: Control animals received PBS alone as vehicle control.
Other Analytical Methods. Plasma calcium levels were determined by atomic absorption spectrophotometry (model 703, Perkin-Elmer, Norwalk, Conn.). For plasma PTHrP, all samples were tested in two dilutions in PTHrP radio-immunoassay (R.I.A.) kit (Nichols Institute Diagnostics, San Juan Capistrano, Calif.) according to manufacturer's instructions.
Comparison was made between plasma collected from normal, non-tumor bearing animals (N), control tumor bearing animals receiving vehicle alone (CTL) and plasma collected from experimental animals receiving different doses of PSP-94 (0.1-10.0 ug/kg/day). Plasma calcium levels were determined by atomic absorption spectrophotometry (model 703, Perkin-Elmer, Norwalk, Conn.). For plasma PTHrP, all samples were tested in two dilutions in PTHrP R.I.A. kit (Nichols Institute Diagnostics, San Juan Capistrano, Calif.) according to manufacturers instructions.
FIGS. 10A and 10B show male Copenhagen rats inoculated s.c. with 10^6 Mat Ly Lu-PTHrP cells. Following 3 days of tumor cell inoculation, animals were treated with vehicle alone (Ctl) or different doses (1.0, or 10.0 ug/kg/day) of PSP-94 for 18 days. Animals were sacrificed on day 21 and plasma PTHrP (FIG. 10A; expressed in picomole equivalents/liter) or plasma calcium (FIG. 10B; expressed in millimolar (mM)) levels were determined. Results for non-tumor bearing animals are also shown (N).
Comparison was made between plasma collected from normal, non-tumor bearing animals, control tumor bearing animals receiving vehicle alone and experimental animals receiving different doses of PCK3145 (1.0-100.0 ug/kg/day). […] Plasma PTHrP levels in normal non-tumor bearing animals are also shown (N).

[2] = tested on: PTHrP; assay: Tumoral PTHrP production by immunohistochemistry of primary tumors; type: in vivo, male Copenhagen rats
Protocol: Histologic Analysis. For immunohistological analysis, primary tumor samples were dewaxed by heating at 60° C. and rehydrated in a graded alcohol series (100%-70%). Anti-rat antibody against PTHrP was used as the primary antibody. Tumor sections were incubated overnight at 4° C. followed by further incubation with biotinylated universal antibody (Vector Laboratories, Burlingame, Calif.) for 45-60 minutes. Sections were rinsed with TBST (Tris buffered saline-Tween) followed by incubation with Vectastain ABC-AP Reagent (Vector Laboratories, Burlingame, Calif.) for 30 minutes. These sections were again washed with TBST and incubated with a Napthol AS-Mix Phosphate/Fast Red solution (Sigma-Aldriche, Oakville, ON). The sections were finally counterstained with Methyl Green (Vector Laboratories, Burlingame, Calif.) and mounted.
Alternatively, paraffin embedded tumor samples were cut into 5 um-thick sections for immunohistochemical analysis. […]
Tumors from control group treated with vehicle alone and experimental groups treated with different doses of PSP-94 (0.1-10.0 μg/kg/day) were excised, paraffin embedded, and sectioned and analyzed for tumoral PTHrP production by immunohistochemical reaction specific for PTHrP using method described herein. […] Three animals were present in each group and three tumor sections were analyzed for each animal by evaluating at least ten random fields of observation.
Primary tumors from control vehicle treated animals and animals treated with the highest dose of PCK3145 (100.0 ug/kg/day) were removed, paraffin embedded, and sectioned. […] Therefore, tumors from control group treated with vehicle alone and experimental group treated with the highest dose of PCK3145 (100.0 ug/kg/day) were excised and analyzed for tumoral PTHrP production by immunohistochemical analysis. […] No reaction was seen when these tumors were evaluated for background reaction in the absence of PTHrP antibody (NC).

E W Q T D N C E T C T C Y E T (EWQTDNCETCTCYET; PCK3145 (polypeptide 31-45))
plasma PTHrP levels ([1]; PCK3145 1.0-100.0 ug/kg/day, day 16, vs vehicle): dose-dependent decrease | tumoral PTHrP production (PTHrP immuno-staining) ([2]; 100.0 ug/kg PCK3145, relative to lower doses): most pronounced | tumoral PTHrP production (PTHrP immuno-staining) ([2]; different doses of PCK3145 (data not shown), vs vehicle): dose dependent decrease

B1: PSP-94: prostate secretory protein of 94 amino acids; native human seminal plasma PSP-94 (protein)
chain: SCYFIPNEGVPGDSTRKCMDLKGNKHPINSEWQTDNCETCTCYETEISCCTLVSTPVGYDKDNCQRIFKKEDCKYIVVEKKDPKKTCSVSEWII
plasma PTHrP levels ([1]; 10.0 ug/kg/day PSP-94): near normalization | plasma PTHrP levels ([1]; PSP-94 0.1-10.0 ug/kg/day, day 16, vs vehicle): dose-dependent decrease | tumoral PTHrP production (PTHrP immunostaining) ([2]; PSP-94 0.1-10.0 ug/kg/day, vs vehicle): same dose-dependent decrease
